Columns and labels:
[1] = tested on: Bacillus megaterium SBUG 1152; test: agar diffusion test (Test System 1, antimicrobial effect); format: cell-based
Procedure, shortened: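 B. megaterium SBUG 1152 grown overnight (17 h, 37° C., 180 rpm) and seeded at 10^6 cells per 10 ml nutrient agar. Compound at 10, 50 and 100 μg, dissolved in methanol or water, applied to paper discs. Inhibition-zone diameter (mm) read after 20 h at 37° C.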

[2] = tested on: Escherichia coli SBUG 1135; test: as above; format: cell-based; parameters: key: r = resistant (no detectable zone of inhibition)
Procedure, shortened: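 E. coli SBUG 1135 grown 17 h at 37° C, 180 rpm, diluted 1:100 and seeded in nutrient agar at ~10^6 cells. Discs loaded with 10, 50 or 100 μg compound (methanol or water); inhibition-zone diameter (mm) read after 20 h at 37° C.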

[3] = tested on: Enterococcus faecalis 769; test: agar diffusion test (Test System II, multi-resistant germs); format: cell-based; parameters: key: r = resistant (no detectable zone of inhibition)
Procedure, shortened: (§1)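 Semi-synthetic compounds were tested by disc diffusion at three loadings, 10, 50 and 100 μg per disc. Bacteria at McFarland 0.5 were spread on Müller-Hinton agar II; after 18-20 h at 37 °C the inhibition zone diameter was taken.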

[4] = tested on: Staphylococcus aureus 315; test: as above; format: cell-based; parameters: key: r = resistant (no detectable zone of inhibition)
Procedure, shortened: as §1

S. epidermidis 125 = test: as above; format: cell-based, Staphylococcus epidermidis; parameters: key to Diameter of zone of inhibition: r = resistant (no detectable zone of inhibition)
Procedure, shortened: as §1

[5] = logP value by HPLC according to Donovan et al.; settings: HPLC, methanol/0.1% phosphoric acid pH 2
Procedure, shortened: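 Reversed-phase HPLC at 18-24° C with a methanol/0.1% phosphoric acid pH 2 gradient, 10% to 100% methanol over 9.4 min, 1.5 mL/min. Analyte co-injected with methyl phenyl sulfonate and toluene standards. logP derived from analyte/standard retention-time relationships.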

| Molecule | Diameter of zone of inhibition ([1]; Quantity n 0.029) [mm] | Diameter of zone of inhibition ([1]; Quantity n 0.14) [mm] | Diameter of zone of inhibition ([1]; Quantity n 0.29) [mm] | Diameter of zone of inhibition ([2]; Quantity n 0.029) | Diameter of zone of inhibition ([2]; Quantity n 0.14) [mm] | Diameter of zone of inhibition ([2]; Quantity n 0.29) [mm] | Diameter of zone of inhibition ([3]; Quantity n 0.029) | Diameter of zone of inhibition ([3]; Quantity n 0.14) | Diameter of zone of inhibition ([3]; Quantity n 0.29) | Diameter of zone of inhibition ([4]; Quantity n 0.029) | Diameter of zone of inhibition ([4]; Quantity n 0.14) | Diameter of zone of inhibition ([4]; Quantity n 0.29) [mm] | Diameter of zone of inhibition (S. epidermidis 125; Quantity n 0.029) | Diameter of zone of inhibition (S. epidermidis 125; Quantity n 0.14) [mm] | Diameter of zone of inhibition (S. epidermidis 125; Quantity n 0.29) [mm] | Diameter of zone of inhibition ([1]; Quantity n 0.1) [mm] | Diameter of zone of inhibition ([2]; Quantity n 0.1) [mm] | Diameter of zone of inhibition ([3]; Quantity n 0.1) | Diameter of zone of inhibition ([4]; Quantity n 0.1) | Diameter of zone of inhibition (S. epidermidis 125; Quantity n 0.1) [mm] | further results |
| --- | --- | --- | --- | --- | --- | --- | --- | --- | --- | --- | --- | --- | --- | --- | --- | --- | --- | --- | --- | --- | --- |
| 3-chlorine-7-[2-(2-methoxycarbonyl-3,6-dioxocyclohexa-1,4-dienylamino)-2-phenyl-acetylamino]-8-oxo-1-thia-5-azabicyclo[4.2.0]oct-3-en-4-carboxylic acid [1k] | 30 | 36 | 38 | 18 mm | 24 | 28 | r | 8 mm | 14 mm | r | 12 mm | 14 | 20 mm | 30 | 32 |  |  |  |  |  |  |
| 7-[2-(2-carbamoyl-3,6-dioxocyclohexa-1,4-dienylamino)-2-(4-hydroxyphenyl)-acetylamino]-desacetoxycephalosporanic acid [1b] |  |  |  |  |  |  |  |  |  |  |  |  |  |  |  | 30 | 14 | r | r | 22 | Diameter of zone of inhibition ([1]; Quantity n 0.019): 22 mm; Diameter of zone of inhibition ([1]; Quantity n 0.19): 32 mm; Diameter of zone of inhibition ([2]; Quantity n 0.019): r; Diameter of zone of inhibition ([2]; Quantity n 0.19): 18 mm; Diameter of zone of inhibition ([3]; Quantity n 0.019): r; Diameter of zone of inhibition ([3]; Quantity n 0.19): r; Diameter of zone of inhibition ([4]; Quantity n 0.019): r; Diameter of zone of inhibition ([4]; Quantity n 0.19): 8 mm; Diameter of zone of inhibition (S. epidermidis 125; Quantity n 0.019): 14 mm; Diameter of zone of inhibition (S. epidermidis 125; Quantity n 0.19): 26 mm |
| 7-[2-(2-ethoxycarbonyl-3,6-dioxocyclohexa-1,4-dienylamino)-2-(4-hydroxyphenyl)-acetylamino]-desacetoxycephalosporanic acid [1d] | 18 | 30 | 34 | r | 12 | 16 | r | r | r | r | r | 8 | 10 mm | 20 | 24 |  |  |  |  |  |  |
| 7-{2-2-(2-hydroxyethylcarbamoyl)-3,6-dioxyocyclohexa-1,4-dienylamino]-2-(4-hydroxyphenyl)-acetylamino}-desacetoxycephalosporanic acid [1a] |  |  |  |  |  |  |  |  |  |  |  |  |  |  |  | 30 | 14 | r | 10 mm | 24 | Diameter of zone of inhibition ([1]; Quantity n 0.019): 22 mm; Diameter of zone of inhibition ([1]; Quantity n 0.19): 32 mm; Diameter of zone of inhibition ([2]; Quantity n 0.019): r^2; Diameter of zone of inhibition ([2]; Quantity n 0.19): 16 mm; Diameter of zone of inhibition ([3]; Quantity n 0.019): r; Diameter of zone of inhibition ([3]; Quantity n 0.19): r; Diameter of zone of inhibition ([4]; Quantity n 0.019): r; Diameter of zone of inhibition ([4]; Quantity n 0.19): 16 mm; Diameter of zone of inhibition (S. epidermidis 125; Quantity n 0.019): 14 mm; Diameter of zone of inhibition (S. epidermidis 125; Quantity n 0.19): 28 mm |
| 7-{2-[2-(2-hydroxyethylcarbamoyl)-3,6-dioxocyclohexa-1,4-dienylamino]-2-phenyl-acetylamino}-desacetoxycephalosporanic acid [1e] | 20 | 28 | 32 | r^2 | 16 | 18 | r | r | r | r | r | 12 | r | 24 | 28 |  |  |  |  |  |  |
| CC1=C(C(=O)O)N2C(=O)C(NC(=O)C(NC3=C(C(N)=O)C(=O)C=CC3=O)c3ccccc3)C2SC1 (stereo not shown) [1f, 7-[2-(2-carbamoyl-3,6-dioxocyclohexa-1,4-dienylamino)-2-phenyl-acetylamino]-desacetoxycephalosporanic acid] |  |  |  |  |  |  |  |  |  |  |  |  |  |  |  | 30 | 14 | r | r | 22 | Diameter of zone of inhibition ([1]; Quantity n 0.02): 20 mm; Diameter of zone of inhibition ([1]; Quantity n 0.2): 32 mm; Diameter of zone of inhibition ([2]; Quantity n 0.02): r; Diameter of zone of inhibition ([2]; Quantity n 0.2): 18 mm; Diameter of zone of inhibition ([3]; Quantity n 0.02): r; Diameter of zone of inhibition ([3]; Quantity n 0.2): r; Diameter of zone of inhibition ([4]; Quantity n 0.02): r; Diameter of zone of inhibition ([4]; Quantity n 0.2): 10 mm; Diameter of zone of inhibition (S. epidermidis 125; Quantity n 0.02): 10 mm; Diameter of zone of inhibition (S. epidermidis 125; Quantity n 0.2): 28 mm |
| O=C(O)C1=C(Cl)CSC2C(NC(=O)C(NC3=C(C(=O)NCCO)C(=O)C=CC3=O)c3ccccc3)C(=O)N12 (stereo not shown) [1i, 3-chlorine-7-{2-[2-(2-hydroxyethylcarbamoyl)-3,6-dioxocyclohexa-1,4-dienylamino]-2-phenyl-acetylamino}-8-oxo-1-thia-5-azabicyclo[4.2.0]oct-3-en-4-carboxylic acid] | 26 | 32 | 34 | 18 mm | 24 | 28 | r | r | r | r | 10 mm | 14 | 20 mm | 28 | 32 |  |  |  |  |  | logP value [5]: 1.81 |
| NC(=O)C1=C(NC(C(=O)NC2C(=O)N3C(C(=O)O)=C(Cl)CSC23)c2ccccc2)C(=O)C=CC1=O (stereo not shown) [1j, 3-chlorine-7-[2-(2-carbamoyl-3,6-dioxocyclohexa-1,4-dienylamino)-2-phenyl-acetylamino]-8-oxo-1-thia-5-azabicyclo[4.2.0]oct-3-en-4-carboxylic acid] |  |  |  |  |  |  |  |  |  |  |  |  |  |  |  | 36 | 26 | 8 mm | 8 mm | 30 | Diameter of zone of inhibition ([1]; Quantity n 0.02): 28 mm; Diameter of zone of inhibition ([1]; Quantity n 0.2): 40 mm; Diameter of zone of inhibition ([2]; Quantity n 0.02): 18 mm; Diameter of zone of inhibition ([2]; Quantity n 0.2): 28 mm; Diameter of zone of inhibition ([3]; Quantity n 0.02): r; Diameter of zone of inhibition ([3]; Quantity n 0.2): 12 mm; Diameter of zone of inhibition ([4]; Quantity n 0.02): r; Diameter of zone of inhibition ([4]; Quantity n 0.2): 12 mm; Diameter of zone of inhibition (S. epidermidis 125; Quantity n 0.02): 22 mm; Diameter of zone of inhibition (S. epidermidis 125; Quantity n 0.2): 32 mm |
| CCOC(=O)C1=C(NC(C(=O)NC2C(=O)N3C(C(=O)O)=C(Cl)CSC23)c2ccccc2)C(=O)C=CC1=O (stereo not shown) [1l] |  |  |  |  |  |  |  |  |  |  |  |  |  |  |  |  |  |  |  |  | Diameter of zone of inhibition ([1]; Quantity n 0.019): 30 mm; Diameter of zone of inhibition ([1]; Quantity n 0.09): 34 mm; Diameter of zone of inhibition ([1]; Quantity n 0.19): 38 mm; Diameter of zone of inhibition ([2]; Quantity n 0.019): 18 mm; Diameter of zone of inhibition ([2]; Quantity n 0.09): 24 mm; Diameter of zone of inhibition ([2]; Quantity n 0.19): 28 mm; Diameter of zone of inhibition ([3]; Quantity n 0.019): r; Diameter of zone of inhibition ([3]; Quantity n 0.09): r; Diameter of zone of inhibition ([3]; Quantity n 0.19): r; Diameter of zone of inhibition ([4]; Quantity n 0.019): r; Diameter of zone of inhibition ([4]; Quantity n 0.09): 10 mm; Diameter of zone of inhibition ([4]; Quantity n 0.19): 14 mm; Diameter of zone of inhibition (S. epidermidis 125; Quantity n 0.019): 18 mm; Diameter of zone of inhibition (S. epidermidis 125; Quantity n 0.09): 26 mm; Diameter of zone of inhibition (S. epidermidis 125; Quantity n 0.19): 28 mm |
